Literature values as cited in patent publication US20260272891A1, “TREATMENT OF AUTOIMMUNE DISEASES AND CANCER WITH PROTEASE INHIBITORS” (Lundquist Institute for Biomedical Innovation at …, priority 2023, published 2026).

Tested on: all variants of concern, including Omicron and its variants
Conditions: cited from earlier work

In the case of `CC(C)(C)[C@H](NC(=O)C(F)(F)F)C(=O)N1C[C@H]2[C@@H]([C@H]1C(=O)N[C@H](C#N)C[C@@H]1CCNC1=O)C2(C)C` [NMV, nirmatrelvir], the antiviral activity is given as “antiviral activity against all variants of concern”.
